Where two headings read alike, the source gives them in different places.
Tested on: Escherichia coli (ECO) isolates
Test: MIC of compounds alone and combined with antibacterials, broth microdilution (CLSI)
Assay type: cell-based
Conditions: for MIC: Escherichia coli
Method in brief: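 Log-phase bacteria at a final 5·10^5 CFU/mL in cation-adjusted Mueller-Hinton broth were incubated 16-20 h at 35° C in ambient air with compound alone or with an antibacterial. MIC was the lowest concentration preventing visible growth; combination MIC of the antibacterial was read at each compound concentration.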

CC1(C)S[C@@H]2[C@H](NC(=O)[C@H](N)c3ccc(O)cc3)C(=O)N2[C@H]1C(=O)O [AMX, Amoxicillin]
128 µg/mL: MIC ATB in combination
> 512 µg/mL: MIC (strain ECO 131119 (TEM-1, OXA-48), CLA @ 4 μg/ml+ ATB)
2 µg/mL: MIC ATB in combination (ECO UFR86, AF1 @ 4 μg/mL)
8 µg/mL: MIC ATB in combination (ECO UFR190, AF1 @ 4 μg/mL) | MIC ATB in combination (ECO UFR191, AF1 @ 4 μg/mL) | MIC ATB in combination (ECO UFR218, AF1 @ 4 μg/mL) | MIC (strain ECO 190314 (CTX-M-1), CLA @ 4 μg/ml+ ATB) | MIC (strain ECO 190549 (CTX-M-1), CLA @ 4 μg/ml+ ATB) | MIC (strain ECO 200159 (TEM-1, CTX-M-14), CLA @ 4 μg/ml+ ATB) | MIC (strain ECO 200259 (CTX-M-14), CLA @ 4 μg/ml+ ATB) | MIC (strain ECO UFR210 (SHV-12), CLA @ 4 μg/ml+ ATB) | MIC (strain ECO UFR211 (TEM-24), CLA @ 4 μg/ml+ ATB)
32 µg/mL: MIC ATB in combination (ECO UFR174, AF1 @ 4 μg/mL) | MIC ATB in combination (ECO UFR175, AF1 @ 4 μg/mL) | MIC ATB in combination (ECO UFR176, AF1 @ 4 μg/mL) | MIC ATB in combination (ECO UFR184, AF1 @ 4 μg/mL) | MIC ATB in combination (ECO UFR207, AF1 @ 4 μg/mL) | MIC (strain ECO UFR207 (CTX-M-15), CLA @ 4 μg/ml+ ATB) | MIC (strain ECO UFR209 (TEM-1, CTX-M-15), CLA @ 4 μg/ml+ ATB) | MIC (strain ECO UFR218 (TEM-1, SHV-1, CTX-M-15), CLA @ 4 μg/ml+ ATB)
256 µg/mL: MIC ATB in combination (ECO 5302, AF1 @ 4 μg/mL) | MIC ATB in combination (ECO RGN238, AF1 @ 4 μg/mL) | MIC ATB in combination (ECO UFR185, AF1 @ 4 μg/mL) | MIC ATB in combination (ECO UFR208, AF1 @ 4 μg/mL)
<=1 μg/mL: MIC ATB in combination (ECO 180070, AF1 @ 4 μg/mL) | MIC ATB in combination (ECO 190314, AF1 @ 4 μg/mL) | MIC ATB in combination (ECO 190549, AF1 @ 4 μg/mL) | MIC ATB in combination (ECO 200159, AF1 @ 4 μg/mL) | MIC ATB in combination (ECO 200259, AF1 @ 4 μg/mL) | MIC ATB in combination (ECO 200344, AF1 @ 4 μg/mL) | MIC ATB in combination (ECO 260096, AF1 @ 4 μg/mL) | MIC ATB in combination (ECO 260304, AF1 @ 4 μg/mL) | MIC ATB in combination (ECO UFR210, AF1 @ 4 μg/mL) | MIC ATB in combination (ECO UFR211, AF1 @ 4 μg/mL)
16 µg/mL: MIC ATB in combination (ECO 131119, AF1 @ 4 μg/mL) | MIC ATB in combination (ECO UFR15, AF1 @ 4 μg/mL) | MIC ATB in combination (ECO UFR62, AF1 @ 4 μg/mL) | MIC ATB in combination (ECO UFR186, AF1 @ 4 μg/mL) | MIC ATB in combination (ECO UFR187, AF1 @ 4 μg/mL) | MIC (strain ECO 180070 (TEM-1, CTX-M-15), CLA @ 4 μg/ml+ ATB) | MIC (strain ECO 200344 (CTX-M-1), CLA @ 4 μg/ml+ ATB)
> 1020 µg/mL: MIC (strain ECO 131119 (TEM-1, OXA-48), ATB alone) | MIC (strain ECO 190317 (TEM-1, SHV-12, CTX-M-15, OXA-1), ATB alone) | MIC (strain ECO RGN238 (OXA-1), ATB alone)
64 µg/mL: MIC ATB in combination (ECO 190317, AF1 @ 4 μg/mL) | MIC ATB in combination (ECO 190457, AF1 @ 4 μg/mL) | MIC ATB in combination (ECO 260508, AF1 @ 4 μg/mL) | MIC ATB in combination (ECO UFR18, AF1 @ 4 μg/mL) | MIC ATB in combination (ECO UFR19, AF1 @ 4 μg/mL) | MIC ATB in combination (ECO UFR61O, AF1 @ 4 μg/mL) | MIC ATB in combination (ECO UFR212, AF1 @ 4 μg/mL) | MIC (strain ECO 190317 (TEM-1, SHV-12, CTX-M-15, OXA-1), CLA @ 4 μg/ml+ ATB) | MIC (strain ECO 260508 (TEM-1, CTX-M-15, OXA-1), CLA @ 4 μg/ml+ ATB)
4 µg/mL: MIC ATB in combination (ECO UFR189, AF1 @ 4 μg/mL) | MIC ATB in combination (ECO UFR209, AF1 @ 4 μg/mL) | MIC (strain ECO 260096 (CTX-M-132), CLA @ 4 μg/ml+ ATB) | MIC (strain ECO 260304 (CTX-M-15), CLA @ 4 μg/ml+ ATB)

COCC1=C(C(=O)O)N2C(=O)[C@@H](NC(=O)/C(=N\OC)c3csc(N)n3)[C@H]2SC1 [POD, Cefpodoxime]
8 µg/mL: MIC ATB in combination (ECO UFR18, AF1 @ 4 μg/mL)
2 µg/mL: MIC ATB in combination (ECO UFR74, AF1 @ 4 μg/mL)
<=0.25 μg/mL: MIC ATB in combination (ECO 4133, AF1 @ 4 μg/mL) | MIC ATB in combination (ECO 5302, AF1 @ 4 μg/mL) | MIC ATB in combination (ECO 131119, AF1 @ 4 μg/mL) | MIC ATB in combination (ECO 180070, AF1 @ 4 μg/mL) | MIC ATB in combination (ECO 190314, AF1 @ 4 μg/mL) | MIC ATB in combination (ECO 190317, AF1 @ 4 μg/mL) | MIC ATB in combination (ECO 190457, AF1 @ 4 μg/mL) | MIC ATB in combination (ECO 190549, AF1 @ 4 μg/mL) | MIC ATB in combination (ECO 200159, AF1 @ 4 μg/mL) | MIC ATB in combination (ECO 200259, AF1 @ 4 μg/mL) | MIC ATB in combination (ECO 200344, AF1 @ 4 μg/mL) | MIC ATB in combination (ECO 260096, AF1 @ 4 μg/mL) | MIC ATB in combination (ECO 260304, AF1 @ 4 μg/mL) | MIC ATB in combination (ECO 260508, AF1 @ 4 μg/mL) | MIC ATB in combination (ECO RGN238, AF1 @ 4 μg/mL) | MIC ATB in combination (ECO UFR15, AF1 @ 4 μg/mL) | MIC ATB in combination (ECO UFR174, AF1 @ 4 μg/mL) | MIC ATB in combination (ECO UFR176, AF1 @ 4 μg/mL) | MIC ATB in combination (ECO UFR189, AF1 @ 4 μg/mL) | MIC ATB in combination (ECO UFR190, AF1 @ 4 μg/mL) | MIC ATB in combination (ECO UFR191, AF1 @ 4 μg/mL) | MIC ATB in combination (ECO UFR207, AF1 @ 4 μg/mL) | MIC ATB in combination (ECO UFR209, AF1 @ 4 μg/mL) | MIC ATB in combination (ECO UFR210, AF1 @ 4 μg/mL) | MIC ATB in combination (ECO UFR211, AF1 @ 4 μg/mL) | MIC ATB in combination (ECO UFR218, AF1 @ 4 μg/mL)
64 µg/mL: MIC ATB in combination (ECO UFR208, AF1 @ 4 μg/mL)
1 µg/mL: MIC ATB in combination (ECO UFR16, AF1 @ 4 μg/mL) | MIC ATB in combination (ECO UFR86, AF1 @ 4 μg/mL) | MIC ATB in combination (ECO UFR175, AF1 @ 4 μg/mL) | MIC ATB in combination (ECO UFR186, AF1 @ 4 μg/mL)
0.5 µg/mL: MIC ATB in combination (ECO UFR61O, AF1 @ 4 μg/mL) | MIC ATB in combination (ECO UFR62, AF1 @ 4 μg/mL) | MIC ATB in combination (ECO UFR187, AF1 @ 4 μg/mL)
4 µg/mL: MIC ATB in combination (ECO UFR19, AF1 @ 4 μg/mL) | MIC ATB in combination (ECO UFR20, AF1 @ 4 μg/mL) | MIC ATB in combination (ECO UFR184, AF1 @ 4 μg/mL)
>128 µg/mL: MIC ATB in combination (ECO UFR17, AF1 @ 4 μg/mL)
32 µg/mL: MIC ATB in combination (ECO UFR185, AF1 @ 4 μg/mL) | MIC ATB in combination (ECO UFR212, AF1 @ 4 μg/mL)

Reference: patent US20200017496A1 (priority 2017, published 2020)
